In the assay the target is T1, GAK (Homo sapiens, UniProt O14976).
T1 construct: endogenous in cells
T1 sequence (O14976 1-1311): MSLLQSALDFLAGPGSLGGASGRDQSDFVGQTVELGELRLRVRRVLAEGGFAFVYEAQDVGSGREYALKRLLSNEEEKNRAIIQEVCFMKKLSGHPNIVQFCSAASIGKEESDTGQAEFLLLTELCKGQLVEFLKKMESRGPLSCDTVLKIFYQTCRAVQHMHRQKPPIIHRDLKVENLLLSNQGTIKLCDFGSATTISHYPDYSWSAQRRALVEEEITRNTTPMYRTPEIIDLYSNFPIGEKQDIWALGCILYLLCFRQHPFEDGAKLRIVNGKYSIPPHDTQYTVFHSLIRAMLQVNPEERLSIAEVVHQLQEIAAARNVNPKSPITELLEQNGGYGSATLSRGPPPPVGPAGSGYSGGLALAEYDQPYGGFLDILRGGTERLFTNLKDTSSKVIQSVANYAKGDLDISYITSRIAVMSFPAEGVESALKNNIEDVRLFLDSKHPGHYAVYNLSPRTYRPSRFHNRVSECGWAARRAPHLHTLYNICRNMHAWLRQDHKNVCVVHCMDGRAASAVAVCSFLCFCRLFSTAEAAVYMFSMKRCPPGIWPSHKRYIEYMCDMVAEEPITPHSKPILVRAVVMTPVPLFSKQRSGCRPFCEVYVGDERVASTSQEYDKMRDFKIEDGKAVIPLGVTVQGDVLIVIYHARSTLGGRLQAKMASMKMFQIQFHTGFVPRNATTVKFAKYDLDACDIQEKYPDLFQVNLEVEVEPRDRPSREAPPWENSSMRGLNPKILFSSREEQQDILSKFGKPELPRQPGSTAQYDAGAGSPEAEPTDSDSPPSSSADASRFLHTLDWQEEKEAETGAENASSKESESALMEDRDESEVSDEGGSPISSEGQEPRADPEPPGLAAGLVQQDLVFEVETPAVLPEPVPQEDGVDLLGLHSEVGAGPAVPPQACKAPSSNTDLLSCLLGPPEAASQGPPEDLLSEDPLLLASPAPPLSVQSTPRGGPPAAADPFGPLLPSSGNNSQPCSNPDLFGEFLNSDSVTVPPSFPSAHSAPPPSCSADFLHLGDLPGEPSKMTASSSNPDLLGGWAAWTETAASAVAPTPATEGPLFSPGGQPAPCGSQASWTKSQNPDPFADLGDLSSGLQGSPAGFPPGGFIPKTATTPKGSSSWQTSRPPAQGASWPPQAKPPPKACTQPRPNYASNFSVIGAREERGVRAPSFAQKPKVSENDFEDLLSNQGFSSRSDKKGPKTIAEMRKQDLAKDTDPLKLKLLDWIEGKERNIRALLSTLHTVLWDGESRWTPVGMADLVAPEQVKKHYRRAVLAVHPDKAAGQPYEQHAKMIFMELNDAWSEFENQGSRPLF
Nature of the assay: Kinobeads two-dose competition binding: GAK. The following applies: for CATDS: target GAK. From the text: Briefly, Kinobeads comprise seven broad-spectrum small molecule kinase inhibitors immobilized on Sepharose beads. […]. Compounds of interest are set to compete for target protein binding with Kinobeads in the lysate and the amount of a given protein bound to Kinobeads in the presence of a compound can be quantified relative to a dimethylsulfoxide (DMSO) vehicle control by label-free mass spectrometry. This assay measures the physical interaction of a compound with thousands of endogenous proteins in parallel and, when systematically increasing the concentration of competitor, enables the calculation of an apparent interaction constant ( Kdapp ) for each compound and protein.
Kinobeads pulldown experiments were performed as described previously[13],[14],[17] with minor modification. […] The protein concentration was adjusted to 5 mg ml^−1. Kinase inhibitors were spiked into 0.5 ml of cell lysate at final concentrations of 100 and 1,000 nM (or DMSO, 0.3, 1, 3, 10, 30, 100, 300 and 1,000 nM for full dose experiments). […] Lysates were incubated for 45 min at 4 °C. Subsequently, lysates were incubated with Kinobeads ε (17.5 µl of settled beads) for 30 min at 4 °C. To assess the degree of protein depletion from the lysates by Kinobeads, the flow through of the DMSO control was recovered for a pulldown of pulldown experiment where the lysate was incubated a second time with fresh Kinobeads. Beads were washed in three steps with buffer containing 0.4%, 0.2% and no IGEPAL. Bound proteins were reduced with 50 mM DTT in 8 M Urea, 40 mM Tris-HCl pH 7.4 for 30 min at room temperature. After alkylation with 55 mM chloroacetamide, the urea concentration was reduced to 1–2 M and proteins were digested with trypsin. Acidified peptides were desalted and concentrated using SepPak tC18 µEluation plates (Waters). Samples were frozen, dried by vacuum centrifugation and stored at −20 °C.
Each kinase inhibitor was processed together with all DMSO controls of the same plate. Additionally, each search was supplemented with five high quality DMSO controls for consistent peptide identification and protein grouping. The resultant file (proteinGroups.txt) was used for subsequent filtering, normalization, data visualization and target annotation that was automatically performed by a data processing pipeline built in house that used R (including the ‘drc’ and ‘heatmap’ packages). First, reverse hits, potential contaminants and not quantified proteins in the DMSO control samples were discarded. Protein raw and label-free quantification intensities were normalized to the median DMSO control intensity to obtain relative residual binding intensities for each protein group at every inhibitor concentration and standard deviations of the DMSO control intensity were calculated. IC50 values were estimated based on the following equation IC50=I×100−inhibition/inhibition where [I] is the inhibitor concentration that was used for IC50 calculation and ‘inhibition’ the relative residual binding intensity. […]. Estimated Kdapp values were then calculated by multiplying the estimated IC50 values with a protein-dependent correction factor that was limited to a maximum value of one. The correction factor accounts for the depletion of a target protein from the lysate by Kinobeads. The depletion can be measured by the ratio of the amount of protein captured in two consecutive pulldowns of the same DMSO control lysate. In this study, correction factors were determined in separate experiments using the same lysate mixture and the same bead batch. Correction factors were set to the median of all correction factors. Targets of kinase inhibitors were annotated using the previously published random forest classifier. A training data set was annotated manually. […]

Like-named read-outs stand apart in the source and are kept apart here.

With `Nc1ncnc2[nH]c(-c3ccccc3)nc12` [AH5015_KCGS], the CATDS was 0.09213. In the case of `C[C@]12O[C@H](C[C@]1(O)CO)n1c3ccccc3c3c4c(c5c6ccccc6n2c5c31)CNC4=O` [Lestaurtinib], the potency estimated from few doses (read-out: Lestaurtinib Drugmatrix value, Gene Name GAK) was 577 nM. In turn, `CCc1cc2c(cc1N1CCC(N3CCOCC3)CC1)C(C)(C)c1[nH]c3cc(C#N)ccc3c1C2=O` [Alectinib] displayed a CATDS of 0.6004. `N#CC1(c2ccc(NC(=O)c3cccnc3NCc3ccncc3)cc2)CCCC1` [Apatinib] gave a CATDS of 0.

`CCN1CCN(Cc2ccc(Nc3ncc(F)c(-c4cc(F)c5nc(C)n(C(C)C)c5c4)n3)nc2)CC1` [Abemaciclib] gave a CATDS of 0. As for `C#Cc1cccc(Nc2ncnc3cc(OC)c(OC4CCN(C)CC4)cc23)c1` [BI00007366], where the note is “Kinobeads two-dose, Drugmatrix - all 2, read-out: apparent Kd GAK”, the potency estimated from few doses is 634 nM. `CN(C)C/C=C/C(=O)Nc1cc2c(Nc3ccc(F)c(Cl)c3)ncnc2cc1O[C@H]1CCOC1` [Afatinib] showed a CATDS of 0.

The values above are taken from publication PMC11062922 (Nature Chemical Biology, 2023).
